Data taken from patent publication US6414024B1, “GABA and L-glutamic acid analogs for antiseizure treatment” (Northwestern University, priority 1990, dated 2002).
Like-named read-outs stand apart in the source and are kept apart here.

How the values were obtained:
[1] = Ataxia in mice (inverted screen procedure); conditions: male, CF-1, in vivo, mouse
Experimental: (§1) For anticonvulsant testing, male CF-1 strain mice (20-25 g) and male Sprague-Dawley rats (75-115 g) were obtained from Charles River Laboratories and were maintained with free access to food and water before testing. […] Briefly, mice were given test substance and were tested for prevention of seizures by application of electrical current to the corneas by 2 metal electrodes covered with gauze and saturated with 0.9% sodium chloride. Electroshock stimulation was delivered by a constant-current device that produced 60 Hz sinusoidal electrical current for 0.2 seconds. For rats, maximal electroshock stimulation consisted of 120 mA of current. […] Any mouse that fell from the wire mesh during a 60 second test period was rated as ataxic.

Gabapentin Receptor = molecular target: T1, Gabapentin Receptor (Rattus norvegicus, UniProt P54290); assay: Gabapentin receptor binding, displacement of [3H]-gabapentin
T1 construct: partially purified synaptic plasma membranes were prepared from rat neocortex; from tissue; host or cells: rat neocortex synaptic plasma membranes
Experimental: For binding studies, partially purified synaptic plasma membranes were prepared from rat neocortex using sucrose density gradients. The cerebral cortex of 10 rats was dissected from the rest of the brain and homogenized in 10 volumes (weight/volume) of ice-cold 0.32 M sucrose in 5 mM tris-acetate (pH 7.4) using a glass homogenizer fitted with a teflon pestle (10-15 strokes at 200 rpm). The homogenate was centrifuged at 100 g for 10 minutes and the supernatant collected and kept on ice. The pellet (PI) was rehomogenized in 20 mL of tris-sucrose and the homogenate recentrifuged. The combined supernatants were centrifuged at 21,500 g for 20 minutes. The pellet (P2) was resuspended in 1.2 M tris-sucrose and 15 mL of this mixture was added to ultracentrifuge tubes. On to this, 10 mL of 0.9 M sucrose was layered followed by a final layer of 5 mM tris-acetate, pH 8.0. Tubes were centrifuged at 100,000 g for 90 minutes. The synaptic plasma membranes located at the 0.9/1.2 M sucrose interface. were collected, resuspended in 50 mL of 5 mM tris-acetate, pH 7.4, and centrifuged at 48,000 g. The final pellet was resuspended in 50 mL of tris-acetate, pH 7.4, aliquoted, and then frozen until use.
The assay tissue (0.1 to 0.3 mg protein) was incubated with […] [^3H]-gabapentin in 10 mM HEPES buffer (pH 7.4 at 20° C., sodium free) in the presence of varying concentrations of test compound for 30 minutes at room temperature, before filtering onto GFB filters under vacuum. Filters were washed 3 times with 5 mL of ice cold 100 mM NaCl solution and dpm bound to filters was determined using liquid scintillation counting. Nonspecific binding was defined by that observed in the presence of […] gabapentin.

[2] = system: tonic hindlimb extensor seizures in mice; assay: Threshold maximal (low-intensity) electroshock, tonic extensor seizures; type: in vivo; conditions: for ED50: IV, mouse, 17 mA
Experimental: Threshold maximum electroshock is an animal model test for generalized seizures that is similar to that of Piredda S G, et al, Pharmacol. and Exptl. Therap. […] The methods for this test are described as follows.
Male CF-1 mice (22-30 g) were allowed free access to food and water prior to testing. For screening, groups of five mice were given a compound intravenously at doses of 30, 100, and 300 mg/kg and tested at 0.5, 2.0, and 4.0 hours after dosing. Drugs were either dissolved in 0.9% saline or suspended in 0.2% methylcellulose. Animals were shocked with corneal electrodes (see below) and observed for tonic hindlimb extensor seizures. Absence of hindlimb extension was taken as an anticonvulsant effect.
The electroshock apparatus delivered a 60 Hz sine wave with a current amplitude of 14 mA (peak-to-peak) for 0.2 seconds.
as §1

[3] = system: maximal electroshock seizures in mice; assay: Maximal electroshock in mice; type: in vivo; conditions: mouse
Description: For anticonvulsant testing, male CF-1 strain mice (20-25 g) and male Sprague-Dawley rats (75-115 g) were obtained from Charles River Laboratories and were maintained with free access to food and water before testing. Maximal electroshock was delivered with corneal electrodes by conventional methods (Krall, supra, 1975) except that low-intensity electroshock with mice consisted of 17 mA of current rather than the conventional 50 mA (zero to peak). Briefly, mice were given test substance and were tested for prevention of seizures by application of electrical current to the corneas by 2 metal electrodes covered with gauze and saturated with 0.9% sodium chloride. Electroshock stimulation was delivered by a constant-current device that produced 60 Hz sinusoidal electrical current for 0.2 seconds. For rats, maximal electroshock stimulation consisted of 120 mA of current. Ataxia in mice was assessed by the inverted screen procedure in which mice were individually placed on a 4.0-inch square of wire mesh that was subsequently inverted (Coughenour, supra, 1978). Any mouse that fell from the wire mesh during a 60 second test period was rated as ataxic.
All drugs were freely soluble in aqueous media. For in vivo studies, drug solutions were made in 0.9% sodium chloride and given in a volume of 1 mL/100 g body weight. Intravenous administration was given by bolus injection into the retro-orbital sinus in mice. Oral administrations were by intragastric gavage.

[4] = IV, read-out: IV Mouse Ataxia (ED50)
[5] = IV, read-out: IV Mouse Maximal Electroshock (ED50)
[6] = PO, read-out: PO Mouse Maximal Electroshock (ED50)

T1 sequence (P54290 25-1091): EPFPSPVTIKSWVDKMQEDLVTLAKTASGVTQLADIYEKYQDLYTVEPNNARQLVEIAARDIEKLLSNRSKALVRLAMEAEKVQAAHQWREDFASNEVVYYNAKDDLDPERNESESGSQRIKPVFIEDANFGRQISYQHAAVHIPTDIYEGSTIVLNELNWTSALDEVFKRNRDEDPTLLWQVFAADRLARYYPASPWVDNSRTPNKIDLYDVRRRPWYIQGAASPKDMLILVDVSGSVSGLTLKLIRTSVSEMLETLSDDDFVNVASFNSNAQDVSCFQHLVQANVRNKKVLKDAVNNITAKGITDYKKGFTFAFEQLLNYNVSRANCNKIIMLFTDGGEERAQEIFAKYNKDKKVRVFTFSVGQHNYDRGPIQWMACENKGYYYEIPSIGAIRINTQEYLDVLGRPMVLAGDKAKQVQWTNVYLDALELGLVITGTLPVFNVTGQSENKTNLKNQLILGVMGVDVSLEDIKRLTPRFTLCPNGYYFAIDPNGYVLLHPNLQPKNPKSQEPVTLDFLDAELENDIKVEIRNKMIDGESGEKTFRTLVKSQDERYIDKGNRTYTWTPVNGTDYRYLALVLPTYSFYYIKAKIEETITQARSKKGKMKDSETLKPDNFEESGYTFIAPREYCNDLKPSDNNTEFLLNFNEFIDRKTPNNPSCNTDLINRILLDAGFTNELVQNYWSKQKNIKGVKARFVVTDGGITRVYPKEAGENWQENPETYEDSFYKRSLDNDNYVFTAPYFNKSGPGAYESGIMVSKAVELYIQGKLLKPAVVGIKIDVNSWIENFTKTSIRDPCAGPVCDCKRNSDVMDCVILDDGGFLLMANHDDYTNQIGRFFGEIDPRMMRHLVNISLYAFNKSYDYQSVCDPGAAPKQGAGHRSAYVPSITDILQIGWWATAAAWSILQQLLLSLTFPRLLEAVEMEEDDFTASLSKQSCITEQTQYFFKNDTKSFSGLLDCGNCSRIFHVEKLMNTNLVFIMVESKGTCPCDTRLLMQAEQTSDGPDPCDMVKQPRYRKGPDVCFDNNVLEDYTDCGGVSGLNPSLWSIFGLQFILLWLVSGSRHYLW

Row | Compound | ED50 [1, 4] [mg/kg] | IC50 (Gabapentin Receptor) [nM] | ED50 [2] [mg/kg] | time of maximum protection, threshold maximal electroshock ([2]; mice, 10 mg/kg intravenously, tested 1 hour to 8 hours) [h] | # Protected, threshold maximal electroshock ([2]; mice, 10 mg/kg intravenously, time of testing 1 hr.) | # Protected, threshold maximal electroshock ([2]; mice, 10 mg/kg intravenously, time of testing 2 hr.) | # Protected, threshold maximal electroshock ([2]; mice, 10 mg/kg intravenously, time of testing 4 hr.) | # Protected, threshold maximal electroshock ([2]; mice, 10 mg/kg intravenously, time of testing 8 hr.) | calculated EDSO, threshold maximal electroshock dose response ([2]; mice, intravenously, two hour testing time) [mg/kg] | ED50 [3, 5] [mg/kg] | ED50 [3, 6] [mg/kg] | ED50 ([1]; (IP), read-out: Mouse Ataxia (ED50)) [mg/kg]
1 | CC(C)CC(CN)CC(=O)O (racemic) [(R,S)-i-C4H9, H, 4-amino-3-(2-methylpropyl)butanoic acid] | > 100 | 100 | 4.8 | 2 | 2/10 | 8/10 | 4/10 | 2/10 | 2.07 | 10 | 47 | –
2 | CC(C)C[C@@H](CN)CC(=O)O [(R)-IBG, (R)(−)-4-amino-3-(2-methylpropyl)butanoic acid] | > 100 | 860 | > 100 | – | – | – | – | – | – | > 100 | – | –
3 | CC(C)C[C@H](CN)CC(=O)O [(S)-IBG, (S)-(+)-4-Amino-3-(2-methylpropyl)butanoic Acid] | > 300 | 44 | 4 | – | – | – | – | – | – | 18 | 12 | –
4 | NCC1(CC(=O)O)CCCCC1 [Gabapentin, gabapentin, reference compound] | – | – | 4.3 | – | – | – | – | – | – | 75 | 200 | > 100
